Laboratory results reported in PubChem BioAssay AID1919004 (Molecular Pharmacology Branch, DTP, NCI, 2023).

Test system: 883617-216-R-J1-PDC complex spheroids, growth, % test/control
Test: Anticancer human tumor 883617-216-R-J1-PDC patient-derived bladder carcinoma cell line growth inhibition [AhR]
Details: for IC50: curve of first compound; for viability, T/C: stronger effect = lower value
Outline: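 Complex tumor spheroids co-cultured with HUVEC and human MSC stroma; AhR antagonists tested in combination with standard-of-care and investigational agents. Top concentration at or near clinical Cmax (else 10 microM), half-log dilutions; growth expressed as percent test/control.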

[1] = second compound 0.1 µM, first compound 0.00949 µM
[2] = second compound 0.1 µM, first compound 0.03 µM
[3] = second compound 0.1 µM, first compound 0.0949 µM
[4] = second compound 0.1 µM, first compound 0.3 µM
[5] = second compound 0.316 µM, first compound 0.00949 µM
[6] = second compound 0.316 µM, first compound 0.03 µM
[7] = second compound 0.316 µM, first compound 0.0949 µM
[8] = second compound 0.316 µM, first compound 0.3 µM
[9] = second compound 1 µM, first compound 0.00949 µM
[10] = second compound 1 µM, first compound 0.03 µM
[11] = second compound 1 µM, first compound 0.0949 µM
[12] = second compound 1 µM, first compound 0.3 µM
[13] = second compound 3.16 µM, first compound 0.00949 µM
[14] = second compound 3.16 µM, first compound 0.03 µM
[15] = second compound 3.16 µM, first compound 0.0949 µM
[16] = second compound 3.16 µM, first compound 0.3 µM
[17] = second compound 10 µM, first compound 0.00949 µM
[18] = second compound 10 µM, first compound 0.03 µM
[19] = second compound 10 µM, first compound 0.0949 µM
[20] = second compound 10 µM, first compound 0.3 µM
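Also: exposure lasted 7 days after dosing on day 3 of spheroid growth.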

## CC1COCCN1c1cc(C2(S(C)(=N)=O)CC2)nc(-c2ccnc3[nH]ccc23)n1 (stereo not given) + Cc1ccccc1N=Nc1ccc(NC(=O)c2ccnn2C)c(C)c1
Second compound 0.1 µM
  IC50: > 10000 nM
Second compound 0.316 µM
  IC50: > 10000 nM
Second compound 1 µM
  IC50: > 10000 nM
Second compound 3.16 µM
  IC50: > 10000 nM
Second compound 10 µM
  IC50: > 10000 nM
Second compound 0.1 µM, first compound 0.0316 µM
  viability, T/C: 97.9%
Second compound 0.1 µM, first compound 0.1 µM
  viability, T/C: 97%
Second compound 0.1 µM, first compound 0.316 µM
  viability, T/C: 88%
Second compound 0.1 µM, first compound 1 µM
  viability, T/C: 84.9%
Second compound 0.1 µM, first compound 3.16 µM
  viability, T/C: 70.9%
Second compound 0.1 µM, first compound 10 µM
  viability, T/C: 54.6%
Second compound 0.316 µM, first compound 0.0316 µM
  viability, T/C: 90.5%
Second compound 0.316 µM, first compound 0.1 µM
  viability, T/C: 93.6%
Second compound 0.316 µM, first compound 0.316 µM
  viability, T/C: 81.2%
Second compound 0.316 µM, first compound 1 µM
  viability, T/C: 89.9%
Second compound 0.316 µM, first compound 3.16 µM
  viability, T/C: 82%
Second compound 0.316 µM, first compound 10 µM
  viability, T/C: 55.4%
Second compound 1 µM, first compound 0.0316 µM
  viability, T/C: 87.7%
Second compound 1 µM, first compound 0.1 µM
  viability, T/C: 90.9%
Second compound 1 µM, first compound 0.316 µM
  viability, T/C: 82.4%
Second compound 1 µM, first compound 1 µM
  viability, T/C: 84.8%
Second compound 1 µM, first compound 3.16 µM
  viability, T/C: 77.1%
Second compound 1 µM, first compound 10 µM
  viability, T/C: 54.8%
Second compound 3.16 µM, first compound 0.0316 µM
  viability, T/C: 86.5%
Second compound 3.16 µM, first compound 0.1 µM
  viability, T/C: 77.6%
Second compound 3.16 µM, first compound 0.316 µM
  viability, T/C: 75%
Second compound 3.16 µM, first compound 1 µM
  viability, T/C: 75%
Second compound 3.16 µM, first compound 3.16 µM
  viability, T/C: 61.5%
Second compound 3.16 µM, first compound 10 µM
  viability, T/C: 58.8%
Second compound 10 µM, first compound 0.0316 µM
  viability, T/C: 75.7%
Second compound 10 µM, first compound 0.1 µM
  viability, T/C: 81.5%
Second compound 10 µM, first compound 0.316 µM
  viability, T/C: 82%
Second compound 10 µM, first compound 1 µM
  viability, T/C: 77.3%
Second compound 10 µM, first compound 3.16 µM
  viability, T/C: 73.5%
Second compound 10 µM, first compound 10 µM
  viability, T/C: 57.1%

## Nc1ncn(C2CC(O)C(CO)S2)c(=O)n1 (stereo not given) + Cc1ccccc1N=Nc1ccc(NC(=O)c2ccnn2C)c(C)c1
Second compound 0.1 µM
  IC50: > 300 nM
Second compound 0.316 µM
  IC50: > 300 nM
Second compound 1 µM
  IC50: > 300 nM
Second compound 3.16 µM
  IC50: > 300 nM
Second compound 10 µM
  IC50: > 300 nM
Second compound 0.1 µM, first compound 0.000949 µM
  viability, T/C: 98.4%
Second compound 0.1 µM, first compound 0.003 µM
  viability, T/C: 90.2%
[1]
  viability, T/C: 88.8%
[2]
  viability, T/C: 88.7%
[3]
  viability, T/C: 87.3%
[4]
  viability, T/C: 75.8%
Second compound 0.316 µM, first compound 0.000949 µM
  viability, T/C: 83.9%
Second compound 0.316 µM, first compound 0.003 µM
  viability, T/C: 93.8%
[5]
  viability, T/C: 83.5%
[6]
  viability, T/C: 81.2%
[7]
  viability, T/C: 84.6%
[8]
  viability, T/C: 75.5%
Second compound 1 µM, first compound 0.000949 µM
  viability, T/C: 84.3%
Second compound 1 µM, first compound 0.003 µM
  viability, T/C: 84.2%
[9]
  viability, T/C: 99.2%
[10]
  viability, T/C: 80.3%
[11]
  viability, T/C: 76.1%
[12]
  viability, T/C: 80.7%
Second compound 3.16 µM, first compound 0.000949 µM
  viability, T/C: 81.7%
Second compound 3.16 µM, first compound 0.003 µM
  viability, T/C: 87.9%
[13]
  viability, T/C: 85%
[14]
  viability, T/C: 73.3%
[15]
  viability, T/C: 86.4%
[16]
  viability, T/C: 78.7%
Second compound 10 µM, first compound 0.000949 µM
  viability, T/C: 73.8%
Second compound 10 µM, first compound 0.003 µM
  viability, T/C: 68.5%
[17]
  viability, T/C: 76.3%
[18]
  viability, T/C: 79.2%
[19]
  viability, T/C: 76.9%
[20]
  viability, T/C: 83.4%

## O=C(C=Cn1cnc(-c2cc(C(F)(F)F)cc(C(F)(F)F)c2)n1)NNc1cnccn1 + Cc1ccccc1N=Nc1ccc(NC(=O)c2ccnn2C)c(C)c1
Second compound 0.1 µM
  IC50: 443 nM
Second compound 0.316 µM
  IC50: 442 nM
Second compound 1 µM
  IC50: 535 nM
Second compound 3.16 µM
  IC50: 274 nM
Second compound 10 µM
  IC50: 268 nM
[1]
  viability, T/C: 76.4%
[2]
  viability, T/C: 79.8%
[3]
  viability, T/C: 61.7%
[4]
  viability, T/C: 54.5%
Second compound 0.1 µM, first compound 0.949 µM
  viability, T/C: 43.7%
Second compound 0.1 µM, first compound 3 µM
  viability, T/C: 34.4%
[5]
  viability, T/C: 72%
[6]
  viability, T/C: 62.8%
[7]
  viability, T/C: 60.8%
[8]
  viability, T/C: 49.8%
Second compound 0.316 µM, first compound 0.949 µM
  viability, T/C: 48.6%
Second compound 0.316 µM, first compound 3 µM
  viability, T/C: 36.7%
[9]
  viability, T/C: 70.5%
[10]
  viability, T/C: 66.9%
[11]
  viability, T/C: 58%
[12]
  viability, T/C: 44.7%
Second compound 1 µM, first compound 0.949 µM
  viability, T/C: 57.1%
Second compound 1 µM, first compound 3 µM
  viability, T/C: 40.3%
[13]
  viability, T/C: 64.1%
[14]
  viability, T/C: 63.6%
[15]
  viability, T/C: 56.2%
[16]
  viability, T/C: 46.3%
Second compound 3.16 µM, first compound 0.949 µM
  viability, T/C: 44.5%
Second compound 3.16 µM, first compound 3 µM
  viability, T/C: 35.4%
[17]
  viability, T/C: 65.5%
[18]
  viability, T/C: 59.7%
[19]
  viability, T/C: 52.5%
[20]
  viability, T/C: 51%
Second compound 10 µM, first compound 0.949 µM
  viability, T/C: 45.4%
Second compound 10 µM, first compound 3 µM
  viability, T/C: 39%
